According to US8338411B2, “Compounds” (Sanofi, priority 2007, dated 2012):
≈ marks a conversion by molar mass, not a printed value.

Assays:
Solubility = assay type: physicochemical
[1] = tested on: Ovalbumin induced cell migration; assay: Allergic mouse model (ovalbumin induced cell migration); assay type: in vivo; conditions: % inhibition (full), p.o. mice 24 h, 10 mg/kg CMC
Procedure: Male BalbC mice of 20-25 g body weight are used for the experiments. The animals are first allergized with ovalbumin, then three weeks after the first ovalbumin injection they are involved into the experiment. On the day of the experiment the mice are treated (per os) with the experimental material (or with the vehicle containing no active ingredient), then after a suitable waiting period they are narcotized. After surgical opening of the trachea, 10 microliter of 1% ovalbumin solution is injected into the trachea.
The control group receives vehicle (physiological salt solution) into the trachea. After surgical closing of the trachea and treatment of the wound, the animals are separated and kept under their usual life conditions for 24 h.
After 24 hours the animals are over narcotized, the trachea is opened again and the lung is washed with buffer solution. The buffer solution is centrifuged, the cell sediment is resuspended again, and then the cells are counted. The total cell number is determined and the different leukocytes are sorted on the bases of the morphology. To determine the effectivity of the experimental material, the inhibition % is calculated in comparison to the control group. To determine the significance of the effect, statistical evaluation is carried out.

[2] = target: T1, human adenosine A3 receptor (Homo sapiens, UniProt P0DMS8); assay: Human adenosine A3 receptor binding ([125I]AB-MECA, CHO-hA3 membranes); conditions: CHO-hA3 membrane, 0.5 nM [125I]AB-MECA
T1 construct: host or cells: CHO cells (CHO-hA3), membrane preparation
T1 sequence (P0DMS8 1-318): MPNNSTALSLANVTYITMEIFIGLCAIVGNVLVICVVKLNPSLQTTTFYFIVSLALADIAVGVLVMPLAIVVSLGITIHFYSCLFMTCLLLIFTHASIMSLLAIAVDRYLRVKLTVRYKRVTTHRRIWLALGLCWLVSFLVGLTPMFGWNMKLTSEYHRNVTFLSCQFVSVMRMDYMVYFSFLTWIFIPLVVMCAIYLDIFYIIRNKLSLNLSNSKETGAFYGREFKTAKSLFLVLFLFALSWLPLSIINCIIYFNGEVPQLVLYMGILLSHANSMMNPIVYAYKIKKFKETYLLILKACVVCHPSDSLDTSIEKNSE
Procedure: Human Adenosine A3 Receptor Binding
Preparing membrane suspension: ovarium cells of cloned […] hamster expressing human A3 receptor (further: CHO-hA3) are appropriately cultured. Achieving confluent cell layer, the cultivating liquid is removed from the cells by washing them with 37° C. PBS, then the cell are suspended in ice cold PBS, washed 3 times with PBS, centrifuged (1000×g 10 minutes) (Sigma 3K30) and homogenated using teflon homogenizer (B. Braun Potter S) at 1500/min rotation speed, for 15 sec. in the following buffer: 50 mM Tris, 10 mM MgCl2, 1 mM EDTA, pH 8.0. The homogenate is centrifuged (43.000 g, 10 min). The precipitate is suspended in the above buffer, protein concentration 0.1 mg/ml (Bradford method). Aliquots of the membrane preparatum are store at −80° C. hA3-CHO membrane preparation from Perkin Elmer was used alternatively.
Binding protocol: incubate CHO-hA3 membrane preparation (2 μg protein content) in the presence of the test material and 0.5 nM [^125I]AB-MECA (4-amino-3-iodo-benzyl-5′-N-methylcarboxamide-adenosine) (100.000 cpm) in incubation buffer (50 mM Tris, 10 mM MgCl2, 1 mM EDTA, 3 U/mL adenosine deaminase, pH 8.0). Define the non-specific radioligand binding in the presence of 100 μM R-PIA (N^6[L-2-phenylisopropyl]adenosine). Total volume of the reaction is 50 μL for 60 min at room temperature. […] Detect the radioactivity in gamma-counter (1470 Wizard, Wallac). […]
Based on the radioisotope saturation curves using Scatchard analysis (G. Scatchard, Ann. N.Y. Acad. Sci. 51:660, 1949) the dissociation constant (Kd) of the radioligand [^125I]AB-MECA on the CHO-hA3 membrane preparate is determined. From the Kd values, applying the Cheng-Prusoff equation (Y. J. Cheng and W. H. Prusoff, Biochem. Pharmacol. 22:3099, 1973) the affinity constants (Ki) of the test compounds are calculated from their IC50 values.

Row | SMILES | solubility (Solubility; pH 1, simulated gastric fluid) | solubility (Solubility; pH 6.5, aqueous buffer) | solubility (Solubility; pH 7.5, aqueous buffer) | Inhibition of cell migration [1] | IC50 [2]
1 | COc1cccc(-c2nc3c(C#N)c(NCc4ccccc4)c4cc(N5CCOCC5)ccc4n3n2)c1 [Example 1, 2-(3-methoxyphenyl)-7-(morpholin-4-yl)-9-benzylamino-10-cyano-s-triazolo[1,5-a]quinoline] | 500 µg/mL (≈ 1020 µM) | 0.2 µg/mL (≈ 0.408 µM) | 2 µg/mL (≈ 4.08 µM) | 81% | 0.038 µM
2 | CN1CCN(c2ccc3c(c2)c(NCc2ccccc2)c(C#N)c2nc(-c4ccccc4)nn23)CC1 [Example 17] | 3000 µg/mL (≈ 6330 µM) | 0.5 µg/mL (≈ 1.06 µM) | 5 µg/mL (≈ 10.6 µM) | 88% | 0.0077 µM
3 | CN1CCN(c2ccc3c(c2)c(NCc2ccccc2)c(C#N)c2nc(-c4ccc(F)cc4)nn23)CC1 [Example 18] | 2500 µg/mL (≈ 5090 µM) | 0.5 µg/mL (≈ 1.02 µM) | 13 µg/mL (≈ 26.4 µM) | 57% | 0.011 µM
